The compounds below were run against T1, DipA (Borreliella burgdorferi, UniProt O51379) (assay: biochemical).
T1 construct: gene BB_0418; native protein from outer membrane fraction of B. burgdorferi B31 delta-p66, hydroxyapatite chromatography in Genapol, untagged; predicted 20-residue signal peptide removed; 36 kDa; minor truncated OspA/OspB in fraction
Format: binding
Description: planar lipid bilayer, titration of channel conductance block on DipA

T1 sequence (O51379 entry or part of it): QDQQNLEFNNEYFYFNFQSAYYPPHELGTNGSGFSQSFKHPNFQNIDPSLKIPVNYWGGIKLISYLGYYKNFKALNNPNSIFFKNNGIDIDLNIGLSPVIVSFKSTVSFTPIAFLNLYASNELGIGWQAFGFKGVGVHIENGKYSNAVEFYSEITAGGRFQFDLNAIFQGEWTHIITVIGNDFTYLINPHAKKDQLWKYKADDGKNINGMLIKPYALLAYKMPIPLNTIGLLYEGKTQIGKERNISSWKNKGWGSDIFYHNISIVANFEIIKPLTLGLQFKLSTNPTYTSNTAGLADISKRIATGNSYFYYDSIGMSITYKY

SMILES	Kd
N[C@@H](CC(=O)O)C(=O)O [Aspartate]	769 µM
O=C(O)CCC(=O)C(=O)O [2-Oxoglutarate]	286 µM
O=C(O)CC(=O)C(=O)O [Oxaloacetate]	50.3 µM
O=C(O)c1ccccc1C(=O)O [Phthalate]	175 µM
O=C(O)C[C@H](O)C(=O)O [Malate]	769 µM
CC(=O)C(=O)O [Pyruvate]	2130 µM
O=C(O)CCC(=O)O [Succinate]	164 µM
O=C(O)/C=C\C(=O)O [Maleate]	35.3 µM
N[C@@H](CCC(=O)O)C(=O)O [Glutamate]	800 µM
O=C(O)/C=C/C(=O)O [Fumarate]	2380 µM
O=C(O)CC(O)(CC(=O)O)C(=O)O [Citrate]	76.9 µM

Reference: publication PMC3349712, “DipA, a Pore-Forming Protein in the Outer Membrane of Lyme Disease Spirochetes Exhibits Specificity for the Permeation of Dicarboxylates” (PLoS ONE, 2012)
